Assay results taken from ChEMBL document CHEMBL5465560, “Selectivity Literature for EUbOPEN Chemogenomic Library” (2024).

Legend:
[1] = molecular target: Ephrin type-A receptor 2 (Homo sapiens) (UniProt P29317); experiment: Selectivity interaction (ActivX KiNativ screen (kinase selectivity in THP-1 cell lysates)) EUB0000639a EPHA2; assay type: subcellular; settings: lysate
[2] = molecular target: Nuclear body protein SP140-like protein (Homo sapiens) (UniProt Q9H930); experiment: Selectivity interaction (Bromodomain panel (DSF asssay)) EUB0000270b SP140L
Sequence of Nuclear body protein SP140-like protein (Homo sapiens) (Q9H930 whole entry): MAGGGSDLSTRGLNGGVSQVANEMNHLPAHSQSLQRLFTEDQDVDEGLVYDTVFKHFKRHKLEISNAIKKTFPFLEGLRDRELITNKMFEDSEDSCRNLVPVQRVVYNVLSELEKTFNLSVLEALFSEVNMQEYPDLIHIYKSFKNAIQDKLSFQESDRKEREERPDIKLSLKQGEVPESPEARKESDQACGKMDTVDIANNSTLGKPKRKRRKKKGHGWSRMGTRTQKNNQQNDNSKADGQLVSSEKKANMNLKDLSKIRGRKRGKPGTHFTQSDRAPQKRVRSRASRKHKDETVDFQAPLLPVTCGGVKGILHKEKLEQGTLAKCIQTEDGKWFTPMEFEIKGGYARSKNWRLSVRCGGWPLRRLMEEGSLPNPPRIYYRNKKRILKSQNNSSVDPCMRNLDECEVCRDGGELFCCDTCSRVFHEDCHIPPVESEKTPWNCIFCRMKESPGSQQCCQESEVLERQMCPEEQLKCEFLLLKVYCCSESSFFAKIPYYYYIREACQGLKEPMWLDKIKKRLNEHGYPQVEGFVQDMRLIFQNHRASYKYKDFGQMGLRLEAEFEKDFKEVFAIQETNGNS

[3] = test system: Receptor-type tyrosine-protein kinase FLT3 (Homo sapiens), P36888 [UNDEFINED MUTATION]; experiment: Selectivity interaction (KinomeScan (DiscoverX)) EUB0000695a FLT3; settings: at 100 nM
Sequence of Receptor-type tyrosine-protein kinase FLT3 (Homo sapiens), P36888 [UNDEFINED MUTATION] (P36888 whole entry, looked up, change not shown): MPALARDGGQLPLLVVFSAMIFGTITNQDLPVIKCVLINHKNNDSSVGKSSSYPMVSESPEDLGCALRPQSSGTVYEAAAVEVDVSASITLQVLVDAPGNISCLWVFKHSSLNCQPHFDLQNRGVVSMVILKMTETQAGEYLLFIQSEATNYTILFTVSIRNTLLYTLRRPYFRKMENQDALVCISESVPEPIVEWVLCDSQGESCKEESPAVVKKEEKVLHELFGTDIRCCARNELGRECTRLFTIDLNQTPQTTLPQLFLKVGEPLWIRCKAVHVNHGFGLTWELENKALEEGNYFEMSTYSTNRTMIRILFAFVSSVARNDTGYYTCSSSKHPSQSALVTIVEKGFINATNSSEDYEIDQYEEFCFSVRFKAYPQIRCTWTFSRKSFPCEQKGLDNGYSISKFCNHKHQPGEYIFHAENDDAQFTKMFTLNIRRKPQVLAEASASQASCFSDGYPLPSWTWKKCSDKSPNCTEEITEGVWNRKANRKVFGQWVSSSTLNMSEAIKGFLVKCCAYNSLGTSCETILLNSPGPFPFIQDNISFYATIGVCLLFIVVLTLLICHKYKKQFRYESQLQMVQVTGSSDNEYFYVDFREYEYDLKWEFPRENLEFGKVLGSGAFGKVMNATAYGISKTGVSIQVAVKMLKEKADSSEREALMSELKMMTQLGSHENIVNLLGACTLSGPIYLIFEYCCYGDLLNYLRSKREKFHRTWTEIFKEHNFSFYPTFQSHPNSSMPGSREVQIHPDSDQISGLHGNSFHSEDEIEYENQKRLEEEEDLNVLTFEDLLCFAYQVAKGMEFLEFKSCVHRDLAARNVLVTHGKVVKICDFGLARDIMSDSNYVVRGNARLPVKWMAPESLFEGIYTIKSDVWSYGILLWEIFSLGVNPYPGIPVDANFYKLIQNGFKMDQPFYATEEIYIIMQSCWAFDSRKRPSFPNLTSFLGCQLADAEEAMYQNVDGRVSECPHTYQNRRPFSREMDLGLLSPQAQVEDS

[4] = molecular target: Serine/threonine-protein kinase 25 (Homo sapiens) (UniProt O00506); experiment: Selectivity interaction (KinomeScan (DiscoverX)) EUB0000699a STK25; settings: at 10 µM
Sequence of Serine/threonine-protein kinase 25 (Homo sapiens) (O00506 whole entry, looked up): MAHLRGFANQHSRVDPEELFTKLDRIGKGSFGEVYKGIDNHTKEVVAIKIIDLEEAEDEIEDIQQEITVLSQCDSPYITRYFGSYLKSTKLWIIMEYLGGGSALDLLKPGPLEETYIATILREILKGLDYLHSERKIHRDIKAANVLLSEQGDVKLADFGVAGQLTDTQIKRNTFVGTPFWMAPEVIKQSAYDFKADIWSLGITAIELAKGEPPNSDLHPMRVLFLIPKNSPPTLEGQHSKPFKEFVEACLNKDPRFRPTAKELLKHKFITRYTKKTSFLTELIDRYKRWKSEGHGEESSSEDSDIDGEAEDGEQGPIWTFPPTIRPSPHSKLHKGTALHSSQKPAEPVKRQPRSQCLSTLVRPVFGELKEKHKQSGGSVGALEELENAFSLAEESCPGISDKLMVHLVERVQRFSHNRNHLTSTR

[5] = molecular target: T1, Serine/threonine-protein kinase LATS1 (Homo sapiens) (UniProt O95835); experiment: Selectivity interaction (KinomeScan (DiscoverX)) EUB0000229b LATS1; settings: at 10 µM
T1 sequence (whole entry): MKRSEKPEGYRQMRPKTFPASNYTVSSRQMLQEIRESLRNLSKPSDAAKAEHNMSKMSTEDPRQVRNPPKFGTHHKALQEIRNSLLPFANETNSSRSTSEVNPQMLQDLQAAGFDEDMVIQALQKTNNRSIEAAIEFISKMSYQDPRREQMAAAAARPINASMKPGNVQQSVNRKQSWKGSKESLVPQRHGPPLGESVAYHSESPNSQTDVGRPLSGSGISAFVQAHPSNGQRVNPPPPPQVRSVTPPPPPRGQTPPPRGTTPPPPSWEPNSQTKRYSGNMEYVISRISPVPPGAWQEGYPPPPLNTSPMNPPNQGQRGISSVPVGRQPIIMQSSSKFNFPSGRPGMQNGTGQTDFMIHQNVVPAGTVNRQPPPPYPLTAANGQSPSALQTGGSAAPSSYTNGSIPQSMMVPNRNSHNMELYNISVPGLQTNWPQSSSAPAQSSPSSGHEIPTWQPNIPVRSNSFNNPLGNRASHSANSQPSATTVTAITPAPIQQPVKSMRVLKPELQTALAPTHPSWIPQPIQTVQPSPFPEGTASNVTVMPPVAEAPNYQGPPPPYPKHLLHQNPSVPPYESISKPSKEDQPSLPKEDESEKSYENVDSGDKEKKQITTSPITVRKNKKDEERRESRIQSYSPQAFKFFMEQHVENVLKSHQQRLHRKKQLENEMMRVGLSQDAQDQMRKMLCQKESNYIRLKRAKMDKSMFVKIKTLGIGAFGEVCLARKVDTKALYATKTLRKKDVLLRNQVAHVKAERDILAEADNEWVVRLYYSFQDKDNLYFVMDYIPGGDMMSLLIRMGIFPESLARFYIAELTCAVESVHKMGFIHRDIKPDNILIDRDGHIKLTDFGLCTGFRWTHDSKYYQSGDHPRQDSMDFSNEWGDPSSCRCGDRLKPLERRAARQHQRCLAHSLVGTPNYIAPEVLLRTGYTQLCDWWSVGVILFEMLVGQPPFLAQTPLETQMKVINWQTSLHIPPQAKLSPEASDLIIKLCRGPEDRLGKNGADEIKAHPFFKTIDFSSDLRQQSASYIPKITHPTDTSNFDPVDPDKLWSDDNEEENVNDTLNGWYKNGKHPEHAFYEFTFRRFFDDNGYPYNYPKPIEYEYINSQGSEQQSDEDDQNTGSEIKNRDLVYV

[6] = molecular target: Mitogen-activated protein kinase kinase kinase 14 (Homo sapiens) (UniProt Q99558); experiment: Selectivity interaction (KinomeScan (DiscoverX)) EUB0001079a MAP3K14; settings: at 1 µM
Sequence of Mitogen-activated protein kinase kinase kinase 14 (Homo sapiens) (Q99558 whole entry, looked up): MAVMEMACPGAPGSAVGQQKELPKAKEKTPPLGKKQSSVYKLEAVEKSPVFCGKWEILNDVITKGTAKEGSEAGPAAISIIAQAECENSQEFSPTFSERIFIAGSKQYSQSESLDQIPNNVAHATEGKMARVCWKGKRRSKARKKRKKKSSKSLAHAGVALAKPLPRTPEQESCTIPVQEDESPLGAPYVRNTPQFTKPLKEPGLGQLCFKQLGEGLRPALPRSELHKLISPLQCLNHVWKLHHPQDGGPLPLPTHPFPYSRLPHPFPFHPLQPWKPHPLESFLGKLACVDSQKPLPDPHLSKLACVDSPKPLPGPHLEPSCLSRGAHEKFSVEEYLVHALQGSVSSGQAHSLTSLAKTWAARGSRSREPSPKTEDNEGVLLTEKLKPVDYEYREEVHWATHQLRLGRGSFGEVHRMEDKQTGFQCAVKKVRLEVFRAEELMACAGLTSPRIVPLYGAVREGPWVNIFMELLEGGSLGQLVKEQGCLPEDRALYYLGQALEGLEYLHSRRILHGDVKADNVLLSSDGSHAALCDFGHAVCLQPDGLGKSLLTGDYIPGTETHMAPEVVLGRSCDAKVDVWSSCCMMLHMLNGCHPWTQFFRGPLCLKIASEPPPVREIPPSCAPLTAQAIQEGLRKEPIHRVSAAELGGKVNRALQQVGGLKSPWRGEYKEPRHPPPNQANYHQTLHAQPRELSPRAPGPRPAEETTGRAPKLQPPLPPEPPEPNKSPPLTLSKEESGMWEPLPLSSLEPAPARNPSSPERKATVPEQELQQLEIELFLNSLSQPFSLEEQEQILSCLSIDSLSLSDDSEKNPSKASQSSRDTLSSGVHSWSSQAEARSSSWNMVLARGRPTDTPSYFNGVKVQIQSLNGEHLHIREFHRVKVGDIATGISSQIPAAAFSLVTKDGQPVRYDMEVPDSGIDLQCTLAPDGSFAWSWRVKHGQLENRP

[7] = molecular target: Ribosomal protein S6 kinase alpha-5 (Homo sapiens) (UniProt O75582); experiment: Selectivity interaction (KinomeScan (DiscoverX)) EUB0001079a RPS6KA5; settings: at 1 µM
[8] = molecular target: T2, Serine/threonine-protein kinase BRSK1 (Homo sapiens) (UniProt Q8TDC3); experiment: Selectivity interaction (KinomeScan (DiscoverX)) EUB0001079a BRSK1; settings: at 1 µM
T2 sequence (whole entry): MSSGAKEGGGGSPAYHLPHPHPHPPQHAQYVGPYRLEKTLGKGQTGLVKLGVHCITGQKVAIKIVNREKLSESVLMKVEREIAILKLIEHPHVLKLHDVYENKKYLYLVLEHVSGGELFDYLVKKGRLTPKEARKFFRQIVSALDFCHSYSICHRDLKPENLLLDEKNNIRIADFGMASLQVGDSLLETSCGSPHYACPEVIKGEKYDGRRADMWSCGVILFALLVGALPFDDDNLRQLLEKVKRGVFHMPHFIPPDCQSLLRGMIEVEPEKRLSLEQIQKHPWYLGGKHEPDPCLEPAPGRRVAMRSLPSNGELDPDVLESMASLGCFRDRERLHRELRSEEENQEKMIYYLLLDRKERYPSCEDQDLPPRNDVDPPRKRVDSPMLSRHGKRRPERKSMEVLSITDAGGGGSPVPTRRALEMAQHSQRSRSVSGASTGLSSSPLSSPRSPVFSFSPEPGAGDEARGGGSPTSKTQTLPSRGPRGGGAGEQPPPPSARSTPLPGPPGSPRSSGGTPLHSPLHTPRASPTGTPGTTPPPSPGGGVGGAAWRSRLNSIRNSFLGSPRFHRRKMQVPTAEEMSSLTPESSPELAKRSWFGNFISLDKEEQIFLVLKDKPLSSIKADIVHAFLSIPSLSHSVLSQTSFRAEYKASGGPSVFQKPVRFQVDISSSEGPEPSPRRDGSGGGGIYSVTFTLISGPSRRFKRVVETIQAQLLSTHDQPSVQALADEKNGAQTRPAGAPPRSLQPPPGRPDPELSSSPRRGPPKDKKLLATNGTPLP

[9] = molecular target: Serine/threonine-protein kinase MRCK alpha (Homo sapiens) (UniProt Q5VT25); experiment: Selectivity interaction (Upstate Kinase Profiler service (Millipore)) EUB0000056c CDC42BPA; settings: at 1 µM
[10] = molecular target: Tyrosine-protein kinase JAK1 (Homo sapiens, UniProt P23458); experiment: Selectivity interaction (Kinase panel (KiNativ target engagement assay in Jurkat cells)) EUB0001635a JAK1; assay type: cell-based; settings: Selectivity number of off-targets 0.0, Selectivity number of targets 233.0, Source Knowledge https://www.sciencedirect.com/science/article/pii/S2451945619300674?via%3Dihub, at 1 µM
Sequence of Tyrosine-protein kinase JAK1 (P23458 whole entry): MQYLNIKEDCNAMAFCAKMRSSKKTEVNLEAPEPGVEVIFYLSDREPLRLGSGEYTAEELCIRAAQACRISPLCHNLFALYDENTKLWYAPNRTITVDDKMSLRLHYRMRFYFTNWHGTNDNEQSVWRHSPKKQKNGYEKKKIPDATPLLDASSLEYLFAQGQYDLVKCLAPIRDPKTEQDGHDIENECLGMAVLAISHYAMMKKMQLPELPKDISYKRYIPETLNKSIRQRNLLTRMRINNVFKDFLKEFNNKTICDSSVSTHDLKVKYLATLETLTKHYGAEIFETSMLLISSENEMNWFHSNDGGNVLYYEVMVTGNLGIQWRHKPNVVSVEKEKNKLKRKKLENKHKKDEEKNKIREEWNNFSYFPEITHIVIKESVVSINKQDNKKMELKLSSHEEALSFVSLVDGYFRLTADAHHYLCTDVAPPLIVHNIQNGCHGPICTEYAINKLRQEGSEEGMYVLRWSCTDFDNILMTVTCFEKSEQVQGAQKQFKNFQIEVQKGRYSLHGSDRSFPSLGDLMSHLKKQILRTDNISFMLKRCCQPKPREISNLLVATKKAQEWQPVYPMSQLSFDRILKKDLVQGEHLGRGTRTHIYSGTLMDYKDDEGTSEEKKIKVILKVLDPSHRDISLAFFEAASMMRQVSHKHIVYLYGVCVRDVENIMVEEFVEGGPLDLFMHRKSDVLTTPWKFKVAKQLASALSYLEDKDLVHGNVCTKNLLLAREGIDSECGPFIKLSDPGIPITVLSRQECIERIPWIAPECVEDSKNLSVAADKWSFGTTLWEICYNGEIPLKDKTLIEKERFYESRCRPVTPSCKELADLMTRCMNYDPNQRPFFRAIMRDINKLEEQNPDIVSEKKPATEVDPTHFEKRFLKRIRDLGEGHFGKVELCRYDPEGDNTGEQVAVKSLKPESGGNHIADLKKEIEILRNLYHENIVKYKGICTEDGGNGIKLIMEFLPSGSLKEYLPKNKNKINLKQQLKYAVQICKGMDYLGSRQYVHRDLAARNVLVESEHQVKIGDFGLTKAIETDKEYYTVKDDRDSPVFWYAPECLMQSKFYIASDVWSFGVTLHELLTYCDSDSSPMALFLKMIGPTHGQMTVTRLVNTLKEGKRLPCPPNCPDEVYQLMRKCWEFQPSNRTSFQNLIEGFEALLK

Sequence of Ephrin type-A receptor 2 (Homo sapiens) (P29317 whole entry): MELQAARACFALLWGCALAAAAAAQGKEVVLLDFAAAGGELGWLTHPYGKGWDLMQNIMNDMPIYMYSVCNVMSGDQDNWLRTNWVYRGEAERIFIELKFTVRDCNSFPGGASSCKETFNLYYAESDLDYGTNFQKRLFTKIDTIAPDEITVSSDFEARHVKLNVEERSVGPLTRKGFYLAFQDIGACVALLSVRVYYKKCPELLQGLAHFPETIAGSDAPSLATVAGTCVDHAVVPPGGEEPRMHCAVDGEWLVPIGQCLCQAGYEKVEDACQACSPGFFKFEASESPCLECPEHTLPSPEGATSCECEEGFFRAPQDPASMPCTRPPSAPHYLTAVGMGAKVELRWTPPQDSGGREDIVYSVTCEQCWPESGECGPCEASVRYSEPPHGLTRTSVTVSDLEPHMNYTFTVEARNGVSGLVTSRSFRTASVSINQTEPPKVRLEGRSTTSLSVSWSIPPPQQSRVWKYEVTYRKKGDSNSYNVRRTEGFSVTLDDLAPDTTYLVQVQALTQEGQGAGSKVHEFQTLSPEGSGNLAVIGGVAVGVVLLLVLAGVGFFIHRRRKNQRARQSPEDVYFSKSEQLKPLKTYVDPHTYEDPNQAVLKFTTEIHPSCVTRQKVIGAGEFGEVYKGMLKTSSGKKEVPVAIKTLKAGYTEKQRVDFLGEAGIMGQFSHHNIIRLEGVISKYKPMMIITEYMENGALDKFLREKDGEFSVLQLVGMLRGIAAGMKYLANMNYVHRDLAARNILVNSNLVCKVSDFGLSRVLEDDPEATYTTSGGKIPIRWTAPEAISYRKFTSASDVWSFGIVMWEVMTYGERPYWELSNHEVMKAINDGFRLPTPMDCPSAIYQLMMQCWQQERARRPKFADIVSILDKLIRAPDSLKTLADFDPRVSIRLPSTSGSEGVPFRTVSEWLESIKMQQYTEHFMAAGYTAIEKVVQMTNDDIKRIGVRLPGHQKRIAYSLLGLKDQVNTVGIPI

`CC[C@@H]1[C@H](F)C(=O)N[C@@H]1COc1nccc2cc(C(N)=O)c(OC)cc12` [ZIMLOVISERTIB] gave a % of inhibition ([1]; at 0.01 µM) of -12.3%, a % of inhibition ([1]; at 0.04 µM) of -11.2% and a % of inhibition ([1]; at 0.2 µM) of 2.2%. It also gave a % of inhibition ([1]; at 1 µM) of -12.7% and a % of inhibition ([1]; at 5 µM) of 14.3%.

In the case of `Cc1cc(CN)cc(C)c1-c1ncn(C)c1-c1cncn1C`, the dTM [2] is reported as -2.98 K.

Work on `Cc1cc(F)c(C(=O)Nc2cccc(-c3nncn3C(C)C)n2)cc1-n1cnc(C2CC2)c1` yielded a % of control [3] of 76%.

With `CCN(CC)CCCCNc1ncc2cc(-c3cc(OC)cc(OC)c3)c(NC(=O)NC(C)(C)C)nc2n1` the % of control [4] was 9.4%.

Work on `COc1cc(N(C)c2ccnc3ccc(C(F)(F)F)cc23)cc(OC)c1OC` yielded a % binding [5] of 100%.

`Nc1cnc(N2CCc3cc(S(=O)(=O)Nc4c(F)cc(Cl)cc4F)cc(N4CCCC4=O)c32)nc1` [TP-020n] showed a % of control [6] of 75%, a % of control [7] of 100% and a % of control [8] of 100%.

Work on `Cc1ccc(-c2ccc3c(ccc4sc5c(c43)NC[C@@H](C)NC5=O)n2)cn1` yielded a % of inhibition [9] of -21%.

`C=CC(=O)Nc1ccc(C(=O)Nc2[nH]nc3c2CN(C(=O)N[C@H](CN(C)C)c2ccccc2)C3(C)C)cc1` showed a % of engagement [10] of 3.6%.
